{"source": "patent US20070281036A1", "about": "“System and method of delivering a desired material to a cell” (University of Vermont and State Agricultural College, priority 2005, published 2007)", "key": {"MM cells [1]": {"system": "MM cells", "assay": "Flow cytometry of mechanisms of APMS uptake", "assay_type": "cell-based, human", "conditions": "30 min pretreatment; chlorpromazine 5 μg/ml, cytochalasin D 1 μM, filipin 6.25 μg/ml; vs control at 37° C.", "procedure": "Cells were exposed for 30 min to chemical inhibitors of specific uptake mechanisms: chlorpromazine ([…]), cytochalasin D (1 μM), or filipin (6.25 μg/ml), i.e. at effective concentrations as reported in the literature (25-29), or incubated at 4° C. for 30 min prior to addition of APMS for various amounts of time. Hoechst 33342 nucleic acid dye (16.2 μM) (Molecular Probes, Invitrogen) was added 15 min prior to harvesting cells. Cells were washed once in PBS and removed from dishes using Accutase cell detachment solution (Innovative Cell Technologies, Inc. San Diego, Calif.), pelleted by centrifugation, resuspended in calcium and magnesium-free phosphate buffered saline (PBS), and kept on ice until analyzed. Samples were analyzed using a BD LSRII flow cytometer (BD Biosciences, San Jose, Calif.) equipped with a Sapphire 488 (Coherent, Santa Clara, Calif.) laser which emits at 488 nm to excite the Alexa 488 dye, and a solid state Xcite (Lightwave) which emits at 355 nm to excite the Hoechst 333342 nucleic acid dye (Molecular Probes, Invitrogen). Data analysis was performed at the time of acquisition using Flow Jo (Tree Star, Inc., Ashland, Oreg.). This software package is an experiment-based flow cytometry data analysis package designed for multi-color research.\nTo verify that the gating used in determining cell populations was accurate, FACS analysis was performed on different populations. Populations of cells/APMS were selected based on their locations on histograms, and were sorted, collected and mounted on glass slides using cytocentriftigation. […] The fluorescent signals from Alexa 488 were detected using 530/30 BP and 505 LP filters. Hoechst staining was detected using 440/40 BP filter. Identification and quantification of populations on cytospins were performed manually with phase contrast and fluorescence microscopy using an Olympus BX50 microscope (Olympus America, Lake Success, N.Y.)."}, "NF-κB": {"system": "NF-κB", "assay": "NF-κB electrophoretic mobility shift assay", "assay_type": "cell-based, human", "procedure": "NF-κB Electrophoretic Mobility Shift Assay. Electrophoretic gel mobility shift assays were used to assess the binding of NF-κB to DNA. Nuclear extracts of MM cells treated with 80 nM DOX, 100 μM DOX, APMS-TEG, APMS-TEG preloaded with 80 nM DOX (APMS-DOX80) for 4 h, were prepared as described previously (14). Samples were treated with or without TNF-α, 1 h prior to harvesting nuclear protein. The amount of protein in each sample was determined with the Bio-Rad protein assay (Bio-Rad). A ^32P-end-labeled double stranded oligodeoxynucleotide representing the specific element that contains an NF-κB consensus sequence (E3292, Promega, Madison, Wis.) was incubated with 3 μg of extract as described previously (15). The components of the NF-κB complex were identified by antibodies specific for p50 and p65 proteins (Santa Cruz Biotechnology, Inc., Santa Cruz, Calif.). Autoradiograms were developed and quantitated with a Bio-Rad phosphorimager."}, "MM cells [2]": {"system": "MM cells", "assay": "MTS cell viability assay", "assay_type": "cell-based, human", "conditions": "80 nM DOX; varying amounts of time", "procedure": "Cell viability was measured in treated cells by using the calorimetric MTS Assay, CellTiter 96 AQueous One Solution Cell Proliferation Assay (Promega) as per the manufacturer's recommendations. Briefly, 5×10^3 cells were plated in a 96-well microtiter plate and allowed to recover overnight. Medium was aspirated, and cells were maintained in a low serum-containing medium for 24 h prior to treatment for varying amounts of time with APMS and/or DOX. MTS reagent was added, plates were incubated at 37° C. for 2-3 h and the absorbance of the wells was read at 492 nm as a measure of cell viability."}, "[3]": {"system": "phosphorylated histone protein H2AX (γH2AX)", "assay": "Immunocytochemical analysis of γH2AX", "assay_type": "cell-based, human", "conditions": "80 nM DOX; 8 and 24 h; compared to control", "procedure": "Mechanisms of Cytotoxicity. To explore mechanisms of toxicity of DOX at low concentrations delivered by APMS, levels of phosphorylated histone protein H2AX (γH2AX), a marker of DNA double strand breaks, and Apoptosis Inducing Factor (AIF), a marker of mitochondrial mediated apoptosis, were analyzed.\nImmunocytochemical Analysis ofphosphorylated histone protein H2AX (γH2AX). Monolayers of cells were grown on glass coverslips and treated as described above. Cells were then washed in PBS, then fixed in 4% paraformaldehyde and permeabilized in 0.1% Triton X-100. Cells were blocked for 1 h at room temperature in PBS containing 3% bovine serum albumin (BSA), then incubated in a 1:500 dilution of mouse monoclonal anti-phospho-histone H2AX antibody (#05-636, Upstate Cell Signaling, Charlottesville, Va.) in 3% BSA overnight at 4° C. Cells were then washed in PBS and incubated in a 1:300 dilution of goat anti-mouse IgO conjugated to Alexa-647 fluorescent tag (Molecular Probes, Invitrogen) in PBS for 45 min at room temperature in the dark. […] Coverslips were then washed and mounted on glass slides using Aqua Poly/Mount (#18606, Polysciences, Inc., Warrington, Pa.) and analyzed using a Zeiss LSM 510 META confocal scanning laser microscope (Carl Zeiss Microimaging)."}, "ERK1/2": {"system": "ERK1/2", "assay": "Western blot for phosphorylated ERK1/2", "assay_type": "cell-based, human", "conditions": "80 nM DOX; 4, 8, 24 and 48 h", "procedure": "(§1) Western Blot Analyses for Phosphorylated ERK's1/2 and AKT To determine whether DOX at low concentrations delivered by APMS modified signaling pathways associated with cell survival, nearly confluent MM cells were washed 3× with cold PBS, scraped from culture plates, and collected by centrifugation at 14,000 rpm for 1 min. The pellet was resuspended in lysis buffer [20 mM Tris (pH 7.4), 1% Triton X-100, 10% glycerol, 137 mM NaCl, 2 mM EDTA, 25 mM β-glycerophosphate, 1 mM Na3VO4, 2 mM pyrophosphate, 1 mM PMSF, 10 μg/ml leupeptin, 1 mM DTT, 10 mM NaF, 1% aprotinin], incubated at 4° C. for 15 min, and centrifuged at 14,000 rpm for 20 min. Protein concentrations were determined using a Bio-Rad RC-DC Assay (Bio-Rad Laboratories, Hercules, Calif.). […] of protein in sample buffer [62.5 mM Tris-HCl (pH 6.8), 2% sodium dodecyl sulfate (SDS), 10% glycerol, 50 mM dithiothreitol, 0.1% w/v bromophenol blue] was resolved by electrophoresis in 10% SDS-polyacrylamide gels, and transferred to nitrocellulose using a Mini Trans-Blot Cell apparatus (Bio-Rad Laboratories). […] Blots were washed 3× in TBS/0.1% Tween-20, and protein bands were visualized with the ECL Western Blotting Detection Reagents (Amersham Biosciences, GE Healthecare UK Limited, Buckinghamshire, UK) and quantitated using a Bio-Rad phosphorimager."}, "AKT": {"system": "AKT", "assay": "Western blot for phosphorylated AKT", "assay_type": "cell-based, human", "conditions": "80 nM DOX; each time point", "procedure": "as §1"}, "[4]": {"system": "human mesothelioma (MM) cells", "assay": "LDH release assay of cell lysis, MM cells", "conditions": "doses of DOX ranging from 800 nM to 2000 nM; 48 h", "quoted_text": "Cells were plated and grown to 70-80% confluence at 37° C. in complete medium. Medium was aspirated and replaced with maintenance medium containing 0.5% FBS, and incubated for 24 hrs.\nBriefly, cells were treated with APMS and/or DOX alone and in combination for varying amounts of time, and 50 μl of the supernatant was removed (in triplicate) and placed into wells of a 96-well plate. Fifty μl of substrate buffer was added to each well, and the plate was incubated for 30 min at room temperature in the dark. Fifty μl of stop solution was then added, and plates were read at 490 nm."}, "human mesothelioma cells": {"system": "human mesothelioma cells", "assay_type": "cell-based", "procedure": "We have also modified existing HPLC methods (Andersen et al, 1993, 1994; De Bruijn et al, 1999) to compare the amounts of DOX transferred to cellular interiors by DOX-loaded APMS and DOX alone. More DOX is transferred to cells when it is preloaded into APMS than when it is administered alone. Briefly, measurement of cellular DOX concentrations was accomplished by lysis and enzymatic digestion of the cellular contents, along with centrifugation. […] Similar methodology was used to quantify the amount of extracellular DOX, and since the total amount of DOX within the APMS particles prior to its addition to the cell culture was known, the amount of DOX remaining within the particles could be determined (FIG. 7). Intracellular and extracellular amounts of DOX were measured by fluorescence HPLC after digestion and release of DOX from cellular material (FIG. 7A). […]\nPreloading APMS with Doxorubicin (DOX). […] The concentration of DOX within the APMS were calculated theoretically and verified via HPLC following hydration overnight in water or methanol at room temperature, as previously described (13). Concentrations of DOX in cells were measured. […] Similar methodology was used to quantify the amount of extracellular DOX, and since the total amount of DOX within the APMS particles prior to its addition to the cell culture was known, the amount of DOX remaining within the particles could be determined."}}, "data": [{"compound": "CCCCC[C@@H](O)[C@H]1C(=O)O[C@H](C)[C@@H](O)/C=C/C=C/C=C/C=C/C=C(\\C)[C@@H](O)C[C@H](O)C[C@H](O)C[C@H](O)C[C@H](O)C[C@H](O)C[C@@H]1O", "note": "[filipin]", "values": [{"measurement": "effect of inhibitor pretreatment on APMS-TEG particle uptake", "setting": "MM cells [1]", "value": "no inhibition"}]}, {"compound": "TNF-α", "values": [{"measurement": "NF-κB DNA binding", "setting": "NF-κB; 1 hr incubation", "value": "dramatically increased DNA binding"}]}, {"compound": "C=C1[C@@H](C)[C@H]2[C@H](Cc3ccccc3)NC(=O)[C@]23[C@H](OC(C)=O)/C=C/[C@@](C)(O)C(=O)[C@@H](C)C/C=C/[C@H]3[C@@H]1O", "note": "[cytochalasin D]", "values": [{"measurement": "effect of inhibitor pretreatment on APMS-TEG particle uptake", "setting": "MM cells [1]", "value": "decreased numbers of APMS-containing cells"}]}, {"compound": "CN(C)CCCN1c2ccccc2Sc2ccc(Cl)cc21", "note": "[chlorpromazine]", "values": [{"measurement": "effect of inhibitor pretreatment on APMS-TEG particle uptake", "setting": "MM cells [1]", "value": "no inhibition"}]}, {"compound": "COc1cccc2c1C(=O)c1c(O)c3c(c(O)c1C2=O)C[C@@](O)(C(=O)CO)C[C@@H]3O[C@H]1C[C@H](N)[C@H](O)[C@H](C)O1", "note": "[DOX, doxorubicin]", "values": [{"measurement": "cell viability (MTS)", "setting": "MM cells [2]", "value": "no significant difference"}, {"measurement": "levels of γH2AX", "setting": "[3]", "value": "increased"}, {"measurement": "phospho-ERK1/2: total ERK1/2 ratio", "setting": "ERK1/2", "value": "do not significantly affect"}, {"measurement": "NF-κB-DNA binding after adding TNF-α 1 hr prior to harvesting", "setting": "NF-κB; 80 nM DOX", "value": "further increased the DNA binding"}, {"measurement": "NF-κB-DNA binding after adding TNF-α for 1 h prior to harvesting", "setting": "NF-κB; 100 μM DOX", "value": "could not be reversed"}, {"measurement": "NF-κB-DNA binding activity", "setting": "NF-κB; 100 μM DOX (a lethal concentration), 4 h", "value": "ablated"}, {"measurement": "NF-κB-DNA binding activity", "setting": "NF-κB; 4 h exposure, 80 nM DOX, compared to controls", "value": "increased"}, {"measurement": "phospho-AKT: total AKT ratios", "setting": "AKT", "value": "did not significantly affect"}, {"measurement": "cell death compared to total LDH released from lysed cells", "setting": "[4]", "value": "10-13%"}, {"measurement": "amount of DOX transferred to the cell relative to DOX preloaded into APMS", "setting": "human mesothelioma cells", "value": "Approximately half as much"}, {"measurement": "maximum amount of DOX transferred to the cellular interior, of the initial dose", "setting": "human mesothelioma cells; human", "value": "approximately 25%"}]}]}
